Patent US5585380A, “Modulation of cellular response to external stimuli” (priority 1995, dated 1996)

Experiments:
Assay type in all cases: in vivo, human
[1] = tested on: patients undergoing allogeneic bone marrow transplant; test: Preliminary study in allogeneic bone marrow transplant patients; conditions: first 30 days post-transplant; PTX/CIPRO N=10, GM-CSF N=27; all also PD and cyclosporin
Experimental: A preliminary study was conducted on patients undergoing allogeneic bone marrow transplant for multiple myeloma, for lymphoid malignancies, or for advanced stage CML or AML. Prednisone is often administered as an immunosuppressant in all experimental groups. In the study, these patients received the drugs for a minimum of 3 days to a maximum of 7 days prior to starting their preparative regimen while in the outpatient department according to the following regimen:
PTX: 600 mg p.o. qid at 9 am, 1 pm, 5 pm and 9 pm;
CIPRO: 500 mg p.o.b.i.d.; and
PD: 0.5 mg/kg b.i.d. (total 1 mg/kg/day changed to methylprednisolone at an equivalent dose starting on day -1).
For the duration of therapy, the patients are continued on the study drugs as follows:
PTX: until day +20 post-transplant then tapered 600 mg/day until off;
CIPRO: until day 30 post-transplant or day of discharge if sooner than day 30; and
PD: tapered starting on day 0 over 14 days until off.
All patients in these studies received PD and cyclosporin as GVHD prophylaxis. Granulocyte recovery was measured post-bone marrow transplant in patients receiving therapy with PTX, CIPRO in addition to standard PD administration (N=10), or GM-CSF (N=10), or PTX (N=4).

[2] = tested on: recipients of marrow from unrelated donors; test: Unrelated donor trial
From the text: (§1) They are given steroids to reduce inflammation. […] In this group of patients, GVHD approaches 90%.

[3] = tested on: recipients of matched allogeneic donor marrow; test: Matched allogeneic donor trial
From the text: as §1

[4] = day on which ANC ≥ 100 cells/uL on two consecutive days
[5] = day on which ANC ≥ 1,000 cells/uL on two consecutive days
[6] = first day RBC count ≥ 30% for 7 consecutive days untransfused
[7] = first day platelet count ≥ 20,000/uL for 7 consecutive days untransfused
[8] = initial discharge from the hospital
[9] = maximum serum bilirubin days 0-28 post BMT
[10] = maximum serum creatinine day 0-28 post BMT

GM-CSF: granulocyte-macrophage colony-stimulating factor
platelet transfusion requirement [1]: 87±69 units | red blood cell requirement [1]: 24.7±24 units | ANC ≤ 100, mean ± standard deviation [2]: 12 ± 7 days | ANC ≥ 100, mean ± standard deviation [2]: 18 ± 6 days | ANC ≥ 100, median [2]: 18.5 days | ANC ≥ 500, mean ± standard deviation [2]: 23 ± 4 days | ANC ≥ 500, median [2]: 22.5 days | ANC ≥ 1,000, mean ± standard deviation [2]: 26 ± 5 days | ANC ≥ 1,000, median [2]: 26.0 days | Bili ≥ 5.0 mg/dL, patients [2]: 46% | Day 100 Survival [2]: 86% | Day initial discharge, mean ± standard deviation [2]: 37 ± 14 days | Day initial discharge, median [2]: 37.0 days | GVHD Grade 0 [2]: 15% | GVHD Grade I [2]: 8% | GVHD Grade II [2]: 46% | GVHD Grade III [2]: 27% | GVHD Grade IV [2]: 4% | Infection 0-28 [2]: 7% | Last plt day, mean ± standard deviation [2]: 26 ± 6 days | Last plt day, median [2]: 24.5 days | Max Bili, mean ± standard deviation [2]: 7 ± 7 mg/dL | Max Bili, median [2]: 5.5 mg/dL | Max Creat, mean ± standard deviation [2]: 1.4 ± 1.2 mg/dL | Max Creat, median [2]: 1.1 mg/dL | Units platelets, mean ± standard deviation [2]: 90 ± 42 units | Units platelets, median [2]: 92.0 units | ANC ≤ 100, median ([2]; GM-CSF 30, PTX/CIPRO 17 patients): 12 days | ANC ≥ 100, mean ± standard deviation [3, 4]: 8 ± 6 days | ANC ≥ 100, median [3, 4]: 9.0 days | ANC ≥ 1,000, mean ± standard deviation [3, 5]: 16 ± 9 days | ANC ≥ 1,000, median [3, 5]: 14.0 days | Bili ≥ 5.0 mg/dL, patients ([3]; days 0-28 post BMT): 44% | Creat ≥ 2.0 mg/dL, patients ([3]; days 0-28 post BMT): 22% | ANC ≤ 100, mean ± standard deviation ([3]; days below 100 cells/uL): 6 ± 4 days | ANC ≤ 100, median ([3]; days below 100 cells/uL, GM-CSF 27, PTX/CIPRO 23 patients): 5.0 days | Last RBC day, mean ± standard deviation [3, 6]: 63 ± 39 days | Last RBC day, median [3, 6]: 59.0 days | Last plt day, mean ± standard deviation [3, 7]: 17 ± 11 days | Last plt day, median [3, 7]: 23.0 days | Day discharge, mean ± standard deviation [3, 8]: 26 ± 13 days | Day discharge, median [3, 8]: 24.0 days | Max Bili, mean ± standard deviation [3, 9]: 8 ± 10 mg/dL | Max Bili, median [3, 9]: 5.0 mg/dL | Max Creat, mean ± standard deviation [3, 10]: 1.8 ± 1.4 mg/dL | Max Creat, median [3, 10]: 1.5 mg/dL | Day 100 Survival ([3]; patients alive 100 days post transplant): 69% | Infection 0-28 ([3]; patients with positive bacterial blood cultures days 0-28 post BMT): 14% | Units platelets, mean ± standard deviation ([3]; platelets transfused day 0-28): 87 ± 74 units | Units platelets, median ([3]; platelets transfused day 0-28): 74.0 units
